Results published in publication PMC8472287, “Betulinic Acid Decorated with Polar Groups and Blue Emitting BODIPY Dye: Synthesis, Cytotoxicity, Cell-Cycle Analysis and Anti-HIV Profiling” (Biomedicines, 2021).
Structures can show the parent of a compound that is named as a salt. Where two headings read alike, the source gives them in different places.

What was measured:
[1] = test system: CEM-DNR; assay: MTS cytotoxicity assay, CEM-DNR; format: cell-based; conditions: Homo sapiens, 72 h, CEM-DNR (daunorubicin resistant), 3-day incubation
Outline: (§1)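 Cells were seeded at 25,000–35,000 cells/mL, exposed to compounds in DMSO from time zero for 72 h at 37 °C, 5% CO2, then given MTS for 1–4 h with OD read at 490 nm. Survival was expressed as percent of mean untreated-control OD.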

[2] = test system: CCRF-CEM; assay: MTS cytotoxicity assay, CCRF-CEM; format: cell-based; conditions: Homo sapiens, 72 h, 3-day incubation
Outline: (§2)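 Cells seeded at 25,000–35,000 cells/mL were exposed to four-fold dilutions of compound in DMSO for 72 h at 37 °C, 5% CO2. MTS added for 1–4 h, OD read at 490 nm; tumour cell survival calculated as percent of control-well OD.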

[3] = test system: HCT116p53−/−; assay: MTS cytotoxicity assay, HCT116p53−/−; format: cell-based; conditions: Homo sapiens, HCT116-p53-null, 72 h, HCT116p53−/− (null p53 gene), 3-day incubation
Outline: as §1

[4] = test system: A549; assay: MTS cytotoxicity assay, A549; format: cell-based; conditions: Homo sapiens, 72 h, 3-day incubation
Outline: as §1

[5] = test system: HCT116; assay: MTS cytotoxicity assay, HCT116; format: cell-based; conditions: Homo sapiens, HCT-116, 72 h, 3-day incubation
Outline: as §1

[6] = test system: BJ; assay: MTS cytotoxicity assay, BJ; format: cell-based; conditions: Homo sapiens, 72 h, BJ normal fibroblasts, 3-day incubation
Outline: as §1

[7] = test system: entire cell line panel; assay: MTS cytotoxicity assay, whole panel (summary in words); conditions: maximal tested concentration
[8] = test system: MRC-5; assay: MTS cytotoxicity assay, MRC-5; format: cell-based; conditions: Homo sapiens, MRC5, 72 h, MRC-5 normal fibroblasts, 3-day incubation
Outline: as §1

[9] = test system: K562; assay: MTS cytotoxicity assay, K562; format: cell-based; conditions: Homo sapiens, 72 h, 3-day incubation
Outline: as §1

[10] = test system: U2OS; assay: MTS cytotoxicity assay, U2OS; format: cell-based; conditions: Homo sapiens, 72 h, 3-day incubation
Outline: as §1

[11] = test system: K562-Tax; assay: MTS cytotoxicity assay, K562-Tax; format: cell-based; conditions: Homo sapiens, 72 h, K562-Tax (paclitaxel-resistant), 3-day incubation
Outline: as §2

[12] = test system: CCRF-CEM lymphoblasts; assay: BrDU incorporation analysis (DNA synthesis); format: cell-based, human; conditions: 24 h incubation
Experimental: Cells were cultivated as in the method above and pulse-labelled with 10 μM 5-bromo-2-deoxyuridine (BrDU) for 30 min before collection to the test tubes. The cells were washed with cold 1 × PBS and fixed in ice-cold 70% ethanol. Before analysis, they were washed with 1 × PBS and incubated in 2M HCl for 30 min at room temperature. Following neutralization with 0.1M Na2B4O7 (borax), the cells were washed with 0.5% Tween-20 and 1% BSA in 1 × PBS. The cell pellets were stained using a primary anti-BrdU antibody (Exbio, Vestec, Czech Republic) for 30 min at room temperature and a secondary anti-mouse-FITC antibody (Sigma). The samples were then incubated with propidium iodide (0.1 mg mL^−1), treated with RNase A (0.5 mg mL^−1) for 1 h at room temperature in the dark and analysed as above.

[13] = test system: HEK 293 cells; conditions: Resazurin assay
[14] = test system: CCRF-CEM lymphoblasts; assay: BrU incorporation analysis (RNA synthesis); format: cell-based, human; conditions: 24 h, 5 × IC50 (high concentration)
[15] = test system: CCRF-CEM lymphoblasts; assay: Mitotic marker pH3Ser10 flow cytometry; format: cell-based, human; conditions: 5 × IC50
Experimental: (§3) CCRF-CEM cells were seeded in 6-well plates at a density of 1 × 10^6/well. […] Cells were then harvested, washed with cold 1 × PBS and fixed in ice-cold 70% ethanol. Fixed cells were incubated overnight at −20 °C, washed in hypotonic citrate buffer, treated with RNase (50 μg mL^−1) and incubated with propidium iodide for 15 min. DNA content was analysed using Becton Dickinson flow cytometer and cell cycle data were analysed in the program ModFitLT (Verity, Carrollton, TX, USA). Apoptosis was measured in a logarithmic model expressing the percentage of the particles with propidium content lower than cells in G0/G1 phase (<G1) of the cell cycle. The mitotic marker pH3Ser10 antibody (Sigma) and secondary anti-mouse-FITC antibody (Sigma) were used for labelling and subsequent flow cytometry analysis of ethanol-fixed CCRF-CEM cells.

[16] = test system: entire cell line panel
[17] = test system: CCRF-CEM lymphoblasts; assay: Cell cycle and apoptosis analysis (flow cytometry, propidium iodide); format: cell-based, human; conditions: 5 × IC50
Experimental: as §3

| Structure (SMILES) | IC50 [1] [µM] | IC50 [2] [µM] | IC50 [3] [µM] | IC50 [4] [µM] | IC50 [5] [µM] | IC50 [6] [µM] | cytotoxic effect in the cell line panel (in words) [7] | IC50 [8] [µM] | IC50 [9] [µM] | IC50 [10] [µM] | IC50 [11] [µM] | fraction of proliferating BrDU positive CCRF-CEM cells (in words) [12] | concentration at which highly toxic to HEK 293 cells [13] | RNA synthesis by BrU (in words) [14] | rate of cell division by mitotic marker pH3Ser10 (in words) [15] | cytotoxic effect in the cell line panel (in words) [16] | increase of the percentage of cells in the S-phase compared to untreated control [17] |
| --- | --- | --- | --- | --- | --- | --- | --- | --- | --- | --- | --- | --- | --- | --- | --- | --- | --- |
| C=C(C)[C@@H]1CC[C@]2(C(=O)O)CC[C@]3(C)[C@H](CC[C@@H]4[C@@]5(C)CC[C@H](O)C(C)(C)[C@@H]5CC[C@]43C)[C@@H]12 [BA, Betulinic acid] | 23.1 | > 50 | > 50 | 22.7 | > 50 | > 50 | weak or medium cytotoxic effect | > 50 | > 50 | 29.7 | > 50 |  |  |  |  |  |  |
| C=C(C)[C@@H]1CC[C@]2(C(=O)N3CCN(CCN)CC3)CC[C@]3(C)[C@H](CC[C@@H]4[C@@]5(C)CC[C@H](O)C(C)(C)[C@@H]5CC[C@]43C)[C@@H]12 [Compound 14, (3β)-28-[4-(2-Aminoethyl)piperazine-1-yl]-3-hydroxylup-20(29)-ene-28-one hydrochloride] | 0.35 | 0.29 | 0.44 | 1.26 | 0.39 | 1.59 |  | 1.58 | 0.4 | 0.42 | 0.52 | reduced the fraction of proliferating BrDU positive CCRF-CEM cells | lower than 5 µM | stalled RNA synthesis | low rate of cell division | high cytotoxicity | about 50% |
| C=C(C)[C@@H]1CC[C@]2(C(=O)NCCCN)CC[C@]3(C)[C@H](CC[C@@H]4[C@@]5(C)CC[C@H](O)C(C)(C)[C@@H]5CC[C@]43C)[C@@H]12 [Compound 3, (3β)-N-(3-Aminopropyl)-3-hydroxylup-20(29)-ene-28-amide] | 1.22 | 0.21 | 0.44 | 1.8 | 0.82 | 1.91 |  | 2.59 | 0.9 | 0.89 | 0.37 | reduced the fraction of proliferating BrDU positive CCRF-CEM cells | lower than 5 µM | stalled RNA synthesis | low rate of cell division | high cytotoxicity |  |
